This note sets out measurements from US20120225889A1, “USE OF MACROCYCLIC LACTONE DERIVATIVES FOR THE TREATMENT OF INFLAMMATORY DISORDERS” (PIRAMAL LIFE SCIENCES LIMITED, priority 2010, published 2012).

The structures appear in SMILES notation. Read-outs that look alike come from different tables or passages of the source.

Type in all cases: cell-based
Assay [1] relates to IL-8. In words: Synovial tissue assay (spontaneous production): IL-8. To be noted: Homo sapiens, synovial tissue cells from rheumatoid arthritis patients, 16 h, read-out: IC50 of IL-8 inhibition. An excerpt:
The ability of compounds of the present invention to inhibit spontaneous production of cytokines from freshly isolated human synovial tissue cells was designed as in reference, Lancet, 29, 244-247, (1989) the disclosure of which is incorporated by reference for the teaching of the assay.
Synovial tissue was obtained from rheumatoid arthritis patients undergoing knee replacement surgery. […] Subsequently, the cells were washed 3 times with RPMI 1640 culture medium and resuspended in complete medium (RPMI 1640 culture medium supplemented with 5% FBS and 5% human serum-AB+(Sigma, USA) at a concentration of 1×10^6 cells/mL. The viability of synovial cells was determined by trypan blue dye exclusion and was uniformly ≧98%. For the experiment, 100 μL of cell suspension was added to the wells of a 96-well culture plate (Nunc, USA). Following cell plating, 100 μL of the culture medium and 1 μL of various concentrations of the test compound (test compound was dissolved in DMSO to obtain a stock solution of 20 mM. […] The IC50 values were calculated by a nonlinear regression method using the GraphPad software (Prism 3.03).

Assay [2] relates to IFN-γ. The assay can be described thus: Cytokine release assay in hPBMCs: IFN-γ. To be noted: Homo sapiens. The method, then: (§1) hPBMCs were obtained from healthy donors by centrifugation of heparinized venous blood over Ficoll/Hypaque solution (Histopaque-1077, Sigma, USA). Isolated hPBMCs were suspended in RPMI 1640 culture medium supplemented with 10% FBS and seeded at a density of 50,000 cells/well in a 96-well plate (Nunc, USA). The cells were incubated at 37° C., 5% CO2 for a period of 24 h. These cells were used for the lymphocyte proliferation as well as cytokine release assay.
(§2) The plated cells were treated with different concentrations of the test compound (prepared as mM stock in DMSO and diluted with DMSO to achieve the following final concentrations in the assay: 100, 10, 1, 0.1, 0.01, 0.001, 0.0001, 0.00001 and 0.000001 μM) and incubated for 30 min. The cells were then stimulated with PHA (prepared as 1 mg/mL stock in RPMI 1640 culture medium and used at a final concentration of 5 μg/mL). FK506 was used as a standard. The plates were incubated at 37° C., 5% CO2 for 48 h. The cytokines in the supernatant collected were detected using ELISA kit (BD biosciences, USA). The cytokines evaluated in the assay were TNF-α, IL-2, IL-6, and IFN-γ.

For assay [3], the system named is IL-6. The assay can be described thus: Cytokine release assay in hPBMCs: IL-6. To be noted: Homo sapiens. On the procedure:
as §1, §2

Assay [4] has as its system TNF-α. The assay can be described thus: Cytokine release assay in hPBMCs: TNF-α. To be noted: Homo sapiens. The method, then:
as §1, §2

With `C/C=C/C(O)C(C)/C=C/C(=N\O)C(C)C(O)C(C)C1OC(=O)/C(OC)=C/C(C)=C/C(C)C(O)C(CC)C(O)C(C)C/C(C)=C/C=C/C1OC` (stereo not shown) [Compound of example 7, (3Z,5E,13E,15E)-18-((5Z,6E,10E)-3,9-Dihydroxy-5-(hydroxymino)-4,8-dimethyldodeca-6,10-dien-2-yl)-9-ethyl-8,10-dihydroxy-3,17-dimethoxy-5,7,11,13-tetramethyl oxacyclooctadeca-3,5,13,15-tetraen-2-one], the IC50 (commonly the midpoint of a concentration-inhibition curve) in assay [1] is 1300 nM; in assay [2] (Table 3: PHA-PMA induced hPBMC's, 48 h, read-out: IFN-γ IC50) it was 0.02 µM; in assay [2] (Table 4: mitogen stimulated production from hPBMC's, read-out: IFN-γ (IC50 μM)) it was 0.1 µM; in assay [3] (Table 3: PHA-PMA induced hPBMC's, 48 h, read-out: IL-6 IC50), 10 nM; in assay [3] (Table 4: mitogen stimulated production from hPBMC's, read-out: IL-6 (IC50 μM)), 0.007 nM; in assay [4] (Table 3: PHA-PMA induced hPBMC's, 48 h, read-out: TNF-α IC50), 0.02 µM. For the same compound, in assay [4] (Table 4: mitogen stimulated production from hPBMC's, read-out: TNF-α (IC50 μM)), the 50% inhibitory concentration (IC50) was found to be 0.07 µM.
